For test [1], the system named is chronic myeloid leukemia cell line K562. The test is described as follows: Cell viability, trypan blue exclusion, K562. It is filed as cell-based. The note with it: Homo sapiens. From the text: (§1) Following cancer cell lines were used: chronic myeloid leukemia cell lines K562, KU812; acute myeloid leukemia cell lines HL60, U937; T-lymphoblastic leukemia cell line Molt-4; prostate cancer cell line PC-3; breast cancer cell line MCF-7; pancreatic cancer cell line MIA PaCa-2. These cancer cell lines were maintained in tissue culture in standard growth medium containing 10% heat-inactivated fetal bovine serum (FBS). Normal human peripheral blood mononuclear cells (PBMC) were separated from whole blood by Ficoll/Hypaque density gradient centrifugation. Peripheral blood samples were collected from normal donors with due approval from the Human Ethics Committee of Indian Institute of Chemical Biology, Kolkata, India, and all experiments with human blood were conducted under an approved institutional Human Ethics committee protocol. Informed consent was provided according to the Declaration of Helsinki. Cancer cell lines and PBMC (5×10^3) in triplicate were incubated in 0.2 mL of standard growth medium containing 10% FBS with varying concentrations of test compounds of the present invention. After 72 hours of incubation, cells were collected by centrifugation (at 1000 g for 5 minutes) and cell-viability was determined by the trypan blue exclusion assay. At least 200 cells were examined in each sample. Because of monolayer culture, treated and untreated PC-3, MCF-7 and MIA PaCa-2 cells were detached from the wells by treatment with Cell Dissociation Solution (Sigma Chemical, St. Louis, Mo.) before counting. Data are represented as IC50 (minimum concentration required to inhibit the viability by 50%) in Table 5.

In test [2] the test system is chronic myeloid leukemia cell line KU812. The test is described as follows: Cell viability, trypan blue exclusion, KU812. Type of test: cell-based. The note with it: Homo sapiens, 72 hours incubation.
From the text: as §1

Test [3] concerns prostate cancer cell line PC-3. The test is described as follows: Cell viability, trypan blue exclusion, PC-3. Type of test: cell-based, human. To be noted: 72 hours incubation.
From the text: as §1

Test [4] deals with endothelial nitric oxide synthase (eNOS). The test is described as follows: NOS isoform siRNA transfection of MIA PaCa 2 cells, apoptosis and eNOS expression. It is filed as cell-based, human. To be noted: siRNA 48 hr, then 30 μM for 24 hr. Here is the method:
MIA PaCa 2 cells were transfected with control siRNA, nNOS siRNA, iNOS siRNA or eNOS siRNA (purchased from Santa Cruz Biotechnology) for 48 hr. Transfections were carried out following the manufacturer's instructions. The transfection reagent used for siRNA transfection was purchased from Santa Cruz. Cells were then treated with vehicle control or Compound 1 (30 μM) for 24 hr. Apoptosis was analyzed by flow cytometry. To confirm that transfectin with siRNAs attenuate the protein expression of respective NOS isoforms, Western blot was performed with whole cell lysates.

The test system of another test is MCF-7 xenografts. The test is described as follows: Human breast adenocarcinoma (MCF-7) xenograft in nude mice. To be noted: 100 mg/kg body weight oral twice a day for 10 days. Type of test: in vivo. The method, then: MCF-7 cells were suspended to 5×10^7 cells/ml in Matrigel (BD Biosciences; 1 volume of cells with 1 volume of cold Matrigel). Nude female mice of 6 to 7 weeks of age (National Institute of Nutrition, Hyderabad, India) were injected with 0.2 ml of this cell suspension. Animals were left untreated until MCF-7 xenografts reached 200-300 mm^3.
Compound 1 (100 mg/kg body weight) or vehicle control were administered via oral route twice a day for 10 days (5 mice per group).

Where two headings read alike, the source gives them in different places.

With `C=CCc1ccc(O)c(O)c1` [Compound 1, 4-allyl-benzene-1,2-diol], the IC50 in test [1] (K562, 72 hours incubation, trypan blue exclusion, read-out: Activity (IC50) K562) is 20 µM; in test [1] (read-out: IC50 against chronic myeloid leukemia cancer cell lines (K562), range over both cell lines K562, KU812 and KU812 and over the listed compounds, read-out: IC50 against chronic myeloid leukemia cancer cell lines (K562, KU812)), 13 to 52 µM; in test [2], 25 µM; in test [3], 35 µM; in test [3] (Homo sapiens, 72 h) it was 25 to 70 µM. Further, in test [4], the “NOS isoform involved in induced nitric oxide production and cell death” value was “Endothelial nitric oxide synthase (eNOS) is responsible”. In addition, the “In vivo efficacy in MCF-7 xenografts” value in the test with MCF-7 xenografts was “further confirmed”.

For orientation: IC50 means the concentration needed to halve the response being measured.

(Values after US9290473B2, “Inhibitors of phosphatidylinositol-3-kinase (PI3) and inducers of nitric oxide (NO)” (COUCIL OF SCIENTIFIC & INDUSTRIAL RESEARCH, priority 2009, dated 2016).)
